Here are results for 31 compounds from article PMC8619434 (Viruses, 2021).

Counter-ions that a name gives are not always drawn.

In one data set the test system is SARS-CoV-2 spike protein pseudovirus. Nature of the data set: organism not typed. In kind it is cell-based.
Conditions: not given
Turning to `CC(=O)OCC[N+](C)(C)C` [acetylcholine], the “% Infectivity of SARS-2-Spike pv” value is listed as “did not enhance infectivity”. As for `C[C@]12CC[C@@H]3c4ccc(O)cc4CC[C@H]3[C@@H]1CC[C@@H]2O` [estradiol], the “% Infectivity of SARS-2-Spike pv” value is reported as “did not enhance infectivity”. Consider `C[C@]12CC[C@@H]3c4ccc(O)cc4CC[C@H]3[C@@H]1C[C@@H](O)[C@@H]2O` [estriol], for which the “% Infectivity of SARS-2-Spike pv” value is given as “did not enhance infectivity”. In the case of `NCCc1c[nH]cn1` [histamine], the “% Infectivity of SARS-2-Spike pv” value was “did not enhance infectivity”. Consider `CC(=O)[C@H]1CC[C@H]2[C@@H]3CCC4=CC(=O)CC[C@]4(C)[C@H]3CC[C@]12C` [progesterone], for which the “% Infectivity of SARS-2-Spike pv” value is listed as “did not enhance infectivity”.

On to `NCCc1c[nH]c2ccc(O)cc12` [serotonin], for which the “% Infectivity of SARS-2-Spike pv” value is on record as “did not enhance infectivity”.

System in a further data set: not listed separately
In words: in vitro. The note with it: human.
`COc1c2ccoc2cc2oc(=O)ccc12` [5-methoxypsoralen]: the viability (in general, a read-out of living cells in per cent, often relative to untreated cells) at 10 µM came out at 111%. As for `COc1c2occc2cc2ccc(=O)oc12` [8-methoxypsoralen], the viability at 10 µM stood at 105%. For the compound `CN1CCC(=C2c3ccccc3CCn3c(C=O)cnc32)CC1` [Alcaftadine], the viability at 10 µM is 97%. Consider `O=C1c2c(O)cccc2C([C@@H]2O[C@H](CO)[C@@H](O)[C@H](O)[C@H]2O)c2cc(CO)cc(O)c21` (stereo partly shown) [Aloin], for which the viability at 10 µM is 103%. As for `NC(=O)N1c2ccccc2C=Cc2ccccc21` [Carbamazepine], the viability at 10 µM was 105%. Same read-out and setting: the figure for `CC(C(=O)O)c1ccc2c(c1)[nH]c1ccc(Cl)cc12` (stereo not shown) [Carprofen] is 103%. For `COc1ccccc1OCCNCC(O)COc1cccc2[nH]c3ccccc3c12` (stereo not shown) [Carvedilol], the viability at 10 µM was found to be 81%. Same read-out and setting: then `CC(C)/N=c1\cc2n(-c3ccc(Cl)cc3)c3ccccc3nc-2cc1Nc1ccc(Cl)cc1` [Clofazimine], with 77%; and `CN1CCN(C2=Nc3cc(Cl)ccc3Nc3ccccc32)CC1` [Clozapine], with 103%; and `C=C1CC[C@H]2C(=C)CC[C@H]3C(=C)C(=O)O[C@@H]3[C@@H]12` [Dehydrocostus Lactone], with 90%. Same read-out and setting: then `CC(=O)Oc1cccc2c1C(=O)c1c(OC(C)=O)cc(C(=O)O)cc1C2=O` [Diacerein], with 126%.

For the compound `c1ccc2c(c1)sc1ccccc12` [Dibenzothiophene], the viability at 10 µM was 102%.

For the compound `CC(=O)O[C@H]1Cc2ccccc2N(C(N)=O)c2ccccc21` [Eslicarbazepine acetate], the viability at 10 µM is 102%. As to `CCc1cccc2c3c([nH]c12)C(CC)(CC(=O)O)OCC3` (stereo not shown) [Etodolac], the viability at 10 µM turned out to be 100%. On the same count and under the same terms, then `CN1CCC(=C2c3ccccc3CC(=O)c3sccc32)CC1` [Ketotifen Fumarate], with 97%. Still for that read-out and setting: then `CN1CCN(C2=Nc3ccccc3Oc3ccc(Cl)cc32)CC1` [Loxapine Succinate], with 94%. `CN1CCN2c3ncccc3Cc3ccccc3C2C1` (stereo not shown) [Mirtazapine]: the viability at 10 µM came out at 104%. On to `Cc1ccnc2c1NC(=O)c1cccnc1N2C1CC1` [Nevirapine], for which the viability at 10 µM amounted to 103%.

As for `Cc1cc2c(s1)Nc1ccccc1N=C2N1CCN(C)CC1` [Olanzapine], the viability at 10 µM is 106%. As to `CN(C)CC/C=C1/c2ccccc2COc2ccc(CC(=O)O)cc21` [Olopatadine HCl], the viability at 10 µM came out at 99%.

Take `NC(=O)N1c2ccccc2CC(=O)c2ccccc21` [Oxcarbazepine]: the viability at 10 µM stood at 109%. The same measure, in the same setting: then `CC(C(=O)O)c1ccc2c(c1)Cc1cccnc1O2` (stereo not shown) [Pranoprofen], with 114%.

The data set is the same for the next values; noted with them: human, % viability (Table S3).
With `NC1=NCC2c3ccccc3Cc3ccccc3N12` (stereo not shown) [Epinastine HCl], the viability at 10 µM came to 94%.

For `CN1CCCCC1CCN1c2ccccc2Sc2ccc([S+](C)[O-])cc21` (stereo not shown) [Mesoridazine besylate], the viability at 10 µM came out at 97%. `OCCOCCN1CCN(C2=Nc3ccccc3Sc3ccccc32)CC1` [Quetiapine Fumarate]: the viability at 10 µM was 96%.
